Assay results reported in patent US20260042731A1, “(2,4-DICHLOROPHENOXY)ACETIC ACID ANALOGS” (CORTEVA AGRISCIENCE LLC, priority 2022, published 2026).
Where two headings read alike, the source gives them in different places.

Key:
[1] = Volatility of compounds measured by thermogravimetric analysis (TGA); assay type: physicochemical
[2] = system: glyphosate resistant Conyza canadensis (L.) (ERICA), horseweed; experiment: Postemergence herbicide evaluation, growth of Conyza canadensis (ERICA); assay type: in vivo; conditions: Erigeron canadensis, post-emergence, percent reduction in plant size vs untreated control, read-out: Ave. ERICA; for pest or weed control at 280 g/ha: 280 g ae/ha; for pest or weed control at 560 g/ha: 560 g ae/ha
[3] = system: weeds ABUTH, AMATA, AMBEL, CHEAL, ERICA; experiment: Postemergence herbicide evaluation, overall average % weed control across ABUTH, AMATA, AMBEL, CHEAL and ERICA; assay type: in vivo; conditions: post-emergence, average over five weeds, read-out: Overall Ave % Weed Control; for pest or weed control at 280 g/ha: 280 g ae/ha; for pest or weed control at 560 g/ha: 560 g ae/ha
[4] = system: Chenopodium album (CHEAL), common lambsquarters; experiment: Postemergence herbicide evaluation, growth of Chenopodium album (CHEAL); assay type: in vivo; conditions: Chenopodium album, post-emergence, percent reduction in plant size vs untreated control, read-out: Ave. CHEAL; for pest or weed control at 280 g/ha: 280 g ae/ha; for pest or weed control at 560 g/ha: 560 g ae/ha
[5] = system: Amaranthus rudis (AMATA), tall water hemp; experiment: Postemergence herbicide evaluation, growth of Amaranthus rudis (AMATA); assay type: in vivo; conditions: Amaranthus tuberculatus, post-emergence, percent reduction in plant size vs untreated control, read-out: Ave. AMATA; for pest or weed control at 280 g/ha: 280 g ae/ha; for pest or weed control at 560 g/ha: 560 g ae/ha
[6] = system: Ambrosia artemisiifolia (AMBEL), common ragweed; experiment: Postemergence herbicide evaluation, growth of Ambrosia artemisiifolia (AMBEL); assay type: in vivo; conditions: Ambrosia artemisiifolia, post-emergence, percent reduction in plant size vs untreated control, read-out: AVE. AMBEL; for pest or weed control at 280 g/ha: 280 g ae/ha; for pest or weed control at 560 g/ha: 560 g ae/ha
[7] = system: Abutilon theophrasti (ABUTH), velvetleaf; experiment: Postemergence herbicide evaluation, growth of Abutilon theophrasti (ABUTH); assay type: in vivo; conditions: Abutilon theophrasti, post-emergence, percent reduction in plant size vs untreated control, read-out: AVE. ABUTH; for pest or weed control at 280 g/ha: 280 g ae/ha; for pest or weed control at 560 g/ha: 560 g ae/ha
[8] = system: Velvetleaf (ABUTH); experiment: Greenhouse post-emergence mixture trials, percent visual control; assay type: in vivo; conditions: Abutilon theophrasti, post-emergence, 504 h, ABUTH, 21 DAA; for pest or weed control at 150 g/ha: Mesotrione 150 g ai or ae/ha alone
[9] = system: Common Lambsquarters (CHEAL); experiment: as above; assay type: in vivo; conditions: CHEAL, 21 DAA

O=C(COc1ccc(Cl)cc1Cl)ONC(=O)c1cccnc1 [Compound A19]
TGA Data (rate of weight loss, volatility) [1]: 0.348 µg/min

O=C(COc1ccc(Cl)cc1Cl)O/N=C/c1cccs1 [Compound A23]
TGA Data (rate of weight loss, volatility) [1]: 0.3728 µg/min

O=C(COc1ccc(Cl)cc1Cl)ONC(=O)c1ccc(Cl)cc1 [Compound A28]
TGA Data (rate of weight loss, volatility) [1]: 0.3455 µg/min

O=C(COc1ccc(Cl)cc1Cl)OCOC(=O)COc1ccc(Cl)cc1Cl [Compound B15, Methylene bis(2-(2,4-dichlorophenoxy)acetate)]
TGA Data (rate of weight loss, volatility) [1]: 0.3 µg/min

Cc1nc2ccccc2n1C(=O)COc1ccc(Cl)cc1Cl [Compound D12]
pest or weed control at 280 g/ha ([2]; 168 h, 7 DAA): 85%
pest or weed control at 560 g/ha ([2]; 168 h, 7 DAA): 85%
pest or weed control at 280 g/ha ([2]; 336 h, 14 DAA): 98.5%
pest or weed control at 560 g/ha ([2]; 336 h, 14 DAA): 99.5%
pest or weed control at 280 g/ha ([2]; 504 h, 21 DAA): 100%
pest or weed control at 560 g/ha ([2]; 504 h, 21 DAA): 100%
pest or weed control at 280 g/ha ([3]; 168 h, 7 DAA): 70%
pest or weed control at 560 g/ha ([3]; 168 h, 7 DAA): 75.5%
pest or weed control at 280 g/ha ([3]; 336 h, 14 DAA): 83.9%
pest or weed control at 560 g/ha ([3]; 336 h, 14 DAA): 90.6%
pest or weed control at 280 g/ha ([3]; 504 h, 21 DAA): 84.5%
pest or weed control at 560 g/ha ([3]; 504 h, 21 DAA): 94%
pest or weed control at 280 g/ha ([4]; 168 h, 7 DAA): 80%
pest or weed control at 560 g/ha ([4]; 168 h, 7 DAA): 75%
pest or weed control at 280 g/ha ([4]; 336 h, 14 DAA): 98.5%
pest or weed control at 560 g/ha ([4]; 336 h, 14 DAA): 98.5%
pest or weed control at 280 g/ha ([4]; 504 h, 21 DAA): 90%
pest or weed control at 560 g/ha ([4]; 504 h, 21 DAA): 96%
pest or weed control at 280 g/ha ([5]; 168 h, 7 DAA): 62.5%
pest or weed control at 560 g/ha ([5]; 168 h, 7 DAA): 77.5%
pest or weed control at 280 g/ha ([5]; 336 h, 14 DAA): 87.5%
pest or weed control at 560 g/ha ([5]; 336 h, 14 DAA): 92.5%
pest or weed control at 280 g/ha ([5]; 504 h, 21 DAA): 65%
pest or weed control at 560 g/ha ([5]; 504 h, 21 DAA): 77.5%
pest or weed control at 280 g/ha ([6]; 168 h, 7 DAA): 75%
pest or weed control at 560 g/ha ([6]; 168 h, 7 DAA): 72.5%
pest or weed control at 280 g/ha ([6]; 336 h, 14 DAA): 67.5%
pest or weed control at 560 g/ha ([6]; 336 h, 14 DAA): 77.5%
pest or weed control at 280 g/ha ([6]; 504 h, 21 DAA): 100%
pest or weed control at 560 g/ha ([6]; 504 h, 21 DAA): 100%
pest or weed control at 280 g/ha ([7]; 168 h, 7 DAA): 47.5%
pest or weed control at 560 g/ha ([7]; 168 h, 7 DAA): 67.5%
pest or weed control at 280 g/ha ([7]; 336 h, 14 DAA): 67.5%
pest or weed control at 560 g/ha ([7]; 336 h, 14 DAA): 85%
pest or weed control at 280 g/ha ([7]; 504 h, 21 DAA): 67.5%
pest or weed control at 560 g/ha ([7]; 504 h, 21 DAA): 96.5%

O=C(COc1ccc(Cl)cc1Cl)Oc1ccncn1 [Compound E8]
TGA Data (rate of weight loss, volatility) [1]: 0.7322 µg/min

O=C(COc1ccc(Cl)cc1Cl)Oc1ccncc1 [Compound E15]
TGA Data (rate of weight loss, volatility) [1]: 0.03683 µg/min

CS(=O)(=O)c1ccc(C(=O)C2C(=O)CCCC2=O)c([N+](=O)[O-])c1 [Mesotrione, 2-[4-(methylsulfonyl)-2-nitrobenzoyl]-1,3-cyclohexanedione, reference compound]
pest or weed control at 75 g/ha ([8]; Trial 2 Trt 25, B2 0 g ae/ha, Mesotrione 75 g ai or ae/ha alone): 100%
pest or weed control at 150 g/ha ([8]; Trial 2 Trt 28, B2 0 g ae/ha): 100%
pest or weed control at 150 g/ha ([8]; Trial Bridge 1 Trt 10, D10 0 g ae/ha): 100%
pest or weed control at 75 g/ha ([9]; Chenopodium album, post-emergence, 504 h, Trial 2 Trt 25: B2 0 g ae/ha, Mesotrione 75 g ai or ae/ha alone): 100%
pest or weed control at 150 g/ha ([9]; Chenopodium album, post-emergence, 504 h, Trial 2 Trt 28: B2 0 g ae/ha, Mesotrione 150 g ai or ae/ha alone): 100%
% Control ([9]; Trial Bridge 1, mixing partner alone (D10 at 0 g ae/ha), Mesotrione 150 g ai or ae/ha): 100%
